Laboratory results reported in ChEMBL document CHEMBL1770149, “Semisynthesis of triptolide analogues: effect of γ-lactone and C-14 substituents on cytotoxic activities” (Bioorg Med Chem Lett, 2011).

Key:
A549 = assay: Cytotoxicity against human A549 cells; assay type: functional, cell-based
HT-29 = assay: Cytotoxicity against human HT-29 cells; assay type: functional, cell-based

SMILES: CC(C)[C@]12O[C@H]1[C@@H]1O[C@@]13[C@H]1CCC4=C(COC4=O)[C@@H]1C[C@@H]1O[C@@]13[C@]21CO1
- IC50 (A549): 53 nM
- IC50 (HT-29): 0.65 nM

SMILES: Cc1occ2c1CC[C@H]1[C@H]2C[C@@H]2O[C@]23[C@]12O[C@H]2[C@@H]1O[C@]1(C(C)C)[C@]3(C)O
- IC50 (A549): > 13400 nM
- IC50 (HT-29): > 13400 nM

SMILES: CC(=O)O[C@@]12CO[C@@H]1C[C@H](O)[C@@]1(C)C(=O)[C@H](O)C3=C(C)[C@@H](OC(=O)[C@H](O)[C@@H](NC(=O)OC(C)(C)C)c4ccccc4)C[C@@](O)([C@@H](OC(=O)c4ccccc4)[C@H]21)C3(C)C [DOCETAXEL]
- IC50 (A549): 1.2 nM
- IC50 (HT-29): 0.75 nM

SMILES: CC(C)[C@]12O[C@H]1[C@@H]1O[C@@]13[C@H]1CCC4=C(COC4=O)[C@@H]1C[C@@H]1O[C@@]13[C@H]2O
- IC50 (A549): 1690 nM
- IC50 (HT-29): 78 nM

SMILES: Cc1occ2c1CC[C@H]1[C@H]2C[C@@H]2O[C@@]23[C@H](O)[C@@]2(C(C)C)O[C@H]2[C@@H]2O[C@@]123
- IC50 (A549): 7850 nM
- IC50 (HT-29): 2010 nM

SMILES: CCc1c2c(nc3ccc(O)cc13)-c1cc3c(c(=O)n1C2)COC(=O)[C@]3(O)CC [7-ETHYL-10-HYDROXYCAMPTOTHECIN]
- IC50 (A549): 47 nM
- IC50 (HT-29): 5.9 nM

SMILES: CC(C)[C@]12O[C@H]1[C@@H]1O[C@@]13[C@H]1CCC4=C(COC4=O)[C@@H]1C[C@@H]1O[C@@]13[C@@]2(C)O
- IC50 (A549): 350 nM
- IC50 (HT-29): 22 nM

SMILES: Cc1occ2c1CC[C@H]1[C@H]2C[C@@H]2O[C@]23[C@]12O[C@H]2[C@@H]1O[C@]1(C(C)C)[C@@]3(C)O
- IC50 (A549): > 13400 nM
- IC50 (HT-29): > 13400 nM

SMILES: CCc1occ2c1CC[C@H]1[C@H]2C[C@@H]2O[C@@]23[C@H](O)[C@@]2(C(C)C)O[C@H]2[C@@H]2O[C@@]123
- IC50 (A549): > 13400 nM
- IC50 (HT-29): > 13400 nM

SMILES: CC(C)[C@]12O[C@H]1[C@@H]1O[C@@]13[C@@]1(C)CCC4=C(COC4=O)[C@@H]1C[C@@H]1O[C@@]13C2=O [TRIPTONIDE]
- IC50 (A549): 53 nM
- IC50 (HT-29): 8.4 nM

SMILES: CC[C@@]1(O)[C@]23O[C@H]2C[C@H]2C4=C(CC[C@@H]2[C@@]32O[C@H]2[C@@H]2O[C@@]21C(C)C)C(=O)OC4
- IC50 (A549): 2830 nM
- IC50 (HT-29): 390 nM

SMILES: CC(C)[C@]12O[C@H]1[C@@H]1O[C@]13[C@]1(O[C@H]1C[C@H]1C4=C(CC[C@@]13C)C(=O)OC4)[C@@H]2O [TRIPTOLIDE]
- IC50 (A549): 19 nM
- IC50 (HT-29): 2.1 nM
